Results on four molecules are retold here after BindingDB's records for patent US12544382 (Beijing Tide Pharmaceutical Co., 2026).

Sequence of Serine/threonine-protein kinase ATR (Q13535 whole entry): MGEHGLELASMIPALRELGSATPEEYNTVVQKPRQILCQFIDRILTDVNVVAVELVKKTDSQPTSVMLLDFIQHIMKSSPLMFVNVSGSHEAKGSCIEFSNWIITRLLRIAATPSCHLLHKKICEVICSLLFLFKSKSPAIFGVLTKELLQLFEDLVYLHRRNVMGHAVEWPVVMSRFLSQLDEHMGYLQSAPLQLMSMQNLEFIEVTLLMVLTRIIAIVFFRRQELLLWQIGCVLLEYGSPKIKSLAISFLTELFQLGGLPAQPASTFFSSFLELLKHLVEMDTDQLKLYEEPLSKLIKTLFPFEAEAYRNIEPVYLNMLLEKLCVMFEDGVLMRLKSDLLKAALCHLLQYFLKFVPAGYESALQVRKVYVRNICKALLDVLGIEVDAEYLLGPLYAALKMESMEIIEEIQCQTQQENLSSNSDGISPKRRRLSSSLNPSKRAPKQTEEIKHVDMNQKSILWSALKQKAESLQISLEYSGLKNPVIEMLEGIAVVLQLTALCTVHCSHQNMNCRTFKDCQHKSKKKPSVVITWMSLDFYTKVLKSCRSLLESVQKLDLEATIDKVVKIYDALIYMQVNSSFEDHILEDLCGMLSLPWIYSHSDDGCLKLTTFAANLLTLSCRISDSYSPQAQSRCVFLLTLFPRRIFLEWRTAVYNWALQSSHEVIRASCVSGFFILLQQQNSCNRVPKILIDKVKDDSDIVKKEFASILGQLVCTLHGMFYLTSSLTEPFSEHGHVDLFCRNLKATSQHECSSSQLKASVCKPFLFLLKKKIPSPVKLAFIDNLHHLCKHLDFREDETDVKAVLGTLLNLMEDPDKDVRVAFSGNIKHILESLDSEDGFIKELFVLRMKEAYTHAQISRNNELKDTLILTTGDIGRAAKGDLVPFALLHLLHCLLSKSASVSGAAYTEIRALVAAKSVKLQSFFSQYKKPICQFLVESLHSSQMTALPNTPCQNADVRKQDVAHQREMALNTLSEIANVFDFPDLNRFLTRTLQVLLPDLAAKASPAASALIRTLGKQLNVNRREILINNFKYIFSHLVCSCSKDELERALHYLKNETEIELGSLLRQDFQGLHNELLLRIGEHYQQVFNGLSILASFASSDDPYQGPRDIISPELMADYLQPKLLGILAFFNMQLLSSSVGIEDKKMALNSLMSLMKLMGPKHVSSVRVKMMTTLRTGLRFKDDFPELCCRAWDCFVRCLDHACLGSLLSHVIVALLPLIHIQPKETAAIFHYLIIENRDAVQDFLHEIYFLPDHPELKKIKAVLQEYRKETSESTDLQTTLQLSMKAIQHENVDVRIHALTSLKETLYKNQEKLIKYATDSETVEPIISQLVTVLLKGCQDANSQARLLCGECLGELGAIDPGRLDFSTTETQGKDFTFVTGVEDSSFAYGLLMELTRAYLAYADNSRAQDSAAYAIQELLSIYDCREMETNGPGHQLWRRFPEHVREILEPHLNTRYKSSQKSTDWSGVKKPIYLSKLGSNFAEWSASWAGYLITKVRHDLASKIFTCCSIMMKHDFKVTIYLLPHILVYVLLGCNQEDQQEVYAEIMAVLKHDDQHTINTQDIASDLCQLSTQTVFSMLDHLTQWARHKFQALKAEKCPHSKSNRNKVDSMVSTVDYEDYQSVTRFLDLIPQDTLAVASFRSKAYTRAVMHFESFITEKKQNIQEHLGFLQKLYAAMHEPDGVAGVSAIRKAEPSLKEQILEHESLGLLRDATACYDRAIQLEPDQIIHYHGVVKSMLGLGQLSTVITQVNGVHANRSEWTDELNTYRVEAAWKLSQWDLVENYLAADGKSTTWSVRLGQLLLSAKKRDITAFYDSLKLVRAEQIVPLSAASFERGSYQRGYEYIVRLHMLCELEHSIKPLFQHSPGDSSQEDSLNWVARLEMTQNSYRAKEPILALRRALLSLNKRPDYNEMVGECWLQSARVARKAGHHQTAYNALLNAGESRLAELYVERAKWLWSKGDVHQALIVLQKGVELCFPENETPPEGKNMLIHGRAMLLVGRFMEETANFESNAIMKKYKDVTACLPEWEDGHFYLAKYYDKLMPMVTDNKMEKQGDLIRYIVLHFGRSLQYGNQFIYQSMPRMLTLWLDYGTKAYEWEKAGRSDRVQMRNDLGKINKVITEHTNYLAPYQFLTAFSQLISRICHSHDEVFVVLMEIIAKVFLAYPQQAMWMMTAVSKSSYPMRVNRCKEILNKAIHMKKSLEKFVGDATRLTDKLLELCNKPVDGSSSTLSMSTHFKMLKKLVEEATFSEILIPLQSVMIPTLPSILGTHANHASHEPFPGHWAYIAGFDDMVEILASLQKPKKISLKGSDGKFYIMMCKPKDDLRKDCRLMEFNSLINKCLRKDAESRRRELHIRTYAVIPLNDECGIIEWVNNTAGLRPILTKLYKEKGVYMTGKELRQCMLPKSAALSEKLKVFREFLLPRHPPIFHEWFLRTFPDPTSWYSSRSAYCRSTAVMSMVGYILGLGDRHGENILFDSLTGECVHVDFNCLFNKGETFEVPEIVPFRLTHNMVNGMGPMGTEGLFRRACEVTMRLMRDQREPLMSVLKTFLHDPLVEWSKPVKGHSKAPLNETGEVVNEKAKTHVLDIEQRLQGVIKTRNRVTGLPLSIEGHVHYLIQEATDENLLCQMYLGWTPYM

In this assay the target is Serine/threonine-protein kinase ATR (Homo sapiens, UniProt Q13535). Nature of the assay: ATR Kinase Activity Assay. As to the method:
Biotinylated protein derived from p53 (Eurofins, art. No.: 14-952) was phosphorylated with ATR kinase. The amount of phosphorylated protein was determined by time-resolved fluorescence in this assay. The amount of phosphorylated protein was detected by anti-p53-phospho-(serine 15)-K-specific antibody (Cisbio, art. No.: 61GSTDLA) and d2 labeled anti-GST antibody (Cisbio, art. No. 61P08KAE). Before the experiment, the following working solution was prepared as required: 1× reaction buffer (20 mM HEPES PH8.0, 1% glycerol, 0.01% Brij-35), dilution buffer (20 mM HEPES PH8.0, 1% glycerol, 0.01% Brij-35, 5 mM DTT and 1% BSA), stop solution (20 mM HEPES PH8.0, 1% glycerol, 0.01% Brij-35, 250 mM EDTA), detection buffer (50 mM HEPES pH7.0, 150 mM NaCl, 267 mM KF, 0.1% sodium cholate, 0.01% Tween-20, 0.0125% sodium azide). The reagents used above are purchased from Sigma or Invitrogen, except for those where the manufacturer was mentioned.
As usually defined, the IC50 is the midpoint of a concentration-inhibition curve. Low values mean inhibition by little substance, high ones a need for much substance. The molecule `Cc1nn(C)c(C)c1-c1cc(N2CCOC[C@H]2C)nc(-c2ccnc(C(F)F)c2)n1` [US12544382, Example A25] showed an IC50 of 2320 nM.
For `CNc1nc2cc(Cl)ccc2n1-c1nc(-c2c(C)nn(C3CCNCC3)c2C(F)(F)F)cc(N2CCOC[C@H]2C)n1` [US12544382, Example D25], the IC50 is 83 nM.
In turn, `CNc1nc2ccccc2n1-c1nc(-c2c(C)nn(C3CCNCC3)c2C(F)(F)F)cc(N2CCOC[C@H]2C)n1` [US12544382, Example D24] registered an IC50 of 3 nM.
In turn, `Cc1n[nH]c(C)c1-c1cc(N2CCOC[C@H]2C)nc(-c2ccnc3c2ccn3CC2CNC2)n1` [US12544382, Example A27] registered an IC50 of 47 nM.
